# In ChEMBL document CHEMBL1201862, “PubChem BioAssay data set” (2004):
#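 Where inhibition never reached the appropriate level, the endpoint shown equals the highest concentration tested. Otherwise, values were interpolated linearly from a five-concentration, 48-hour dose response in 96-well plates. GI50 marks 50% less growth.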 Calls of active or inactive are those of the source. Cut-off read from the data, not from the text of the source: active = GI50 up to about 1.1 µM and inactive = higher.
# Tests used:
# Assay in all cases: growth of human tumour cells (NCI), 48 h
# SK-MEL-5 = system: SK-MEL-5
# LOX IMVI = system: LOX IMVI
# 786-0 = system: 786-0
# IGROV-1 = system: IGROV-1
# K562 = system: K562
# HCT-116 = system: HCT-116
# SNB-19 = system: SNB-19
# UO-31 = system: UO-31
# M14 = system: M14
# SF-295 = system: SF-295
# UACC-257 = system: UACC-257
# LXFL 529 = system: LXFL 529
# NCI-H522 = system: NCI-H522
# T47D = system: T47D
# DU-145 = system: DU-145
# MCF7 = system: MCF7
# NCI/ADR-RES = system: NCI/ADR-RES
# Hs-578T = system: Hs-578T
# PC-3 = system: PC-3
# MDA-N = system: MDA-N
Structure (SMILES),GI50 (SK-MEL-5),GI50 (LOX IMVI),GI50 (786-0),GI50 (IGROV-1),GI50 (K562),GI50 (HCT-116),GI50 (SNB-19),GI50 (UO-31),GI50 (M14),GI50 (SF-295),GI50 (UACC-257),GI50 (LXFL 529),GI50 (NCI-H522),GI50 (T47D),GI50 (DU-145),GI50 (MCF7),GI50 (NCI/ADR-RES),GI50 (Hs-578T),GI50 (PC-3),GI50 (MDA-N)
CCN(CC)c1ccc(C(=C2C=CC(=[N+](CC)CC)C=C2)c2ccccc2)cc1,0.0166 µM (active),0.0219 µM (active),0.0352 µM (active),0.0689 µM (active),0.0213 µM (active),0.0324 µM (active),0.043 µM (active),0.0366 µM (active),0.0163 µM (active),0.0248 µM (active),0.0472 µM (active),0.0225 µM (active),0.0177 µM (active),–,–,–,–,–,–,–
c1ccc2c3nc(C4CCCC4)nc-3c(NC3CCCC3)[nH]c2c1,6.98 µM (inactive),15.8 µM (inactive),8.07 µM (inactive),20.3 µM (inactive),7.83 µM (inactive),5.66 µM (inactive),45.1 µM (inactive),21.6 µM (inactive),2.98 µM (inactive),16.8 µM (inactive),5.94 µM (inactive),8.32 µM (inactive),18.4 µM (inactive),–,–,–,–,–,–,–
C=C1COC(O)(C2OCOC(C3CC(=O)NC(=O)C3)C2O)C1C (stereo not drawn),0.00126 µM (active),0.00158 µM (active),0.00512 µM (active),0.00562 µM (active),0.00316 µM (active),0.00348 µM (active),0.00233 µM (active),0.00105 µM (active),0.00442 µM (active),0.00305 µM (active),0.00802 µM (active),0.00222 µM (active),0.000716 µM (active),0.00146 µM (active),0.00361 µM (active),0.00268 µM (active),0.017 µM (active),0.00629 µM (active),0.0031 µM (active),0.0034 µM (active)
C=C(c1nc2ccc(Cl)cc2[nH]c1=O)C(O)c1ccc(C(O)C(=O)c2nc3ccc(Cl)cc3[nH]c2=O)cc1 (stereo not drawn),> 95.1 µM (inactive),> 83.6 µM (inactive),> 100 µM (inactive),> 68.2 µM (inactive),49 µM (inactive),> 100 µM (inactive),> 100 µM (inactive),> 91 µM (inactive),> 100 µM (inactive),> 100 µM (inactive),> 100 µM (inactive),81.1 µM (inactive),47.1 µM (inactive),> 100 µM (inactive),> 100 µM (inactive),> 100 µM (inactive),> 100 µM (inactive),> 100 µM (inactive),87.9 µM (inactive),> 100 µM (inactive)
CCOC(=O)/N=c1\ss/c(=N\C(=S)N(C)C)n1-c1ccccc1,2.62 µM (inactive),> 100 µM (inactive),14.6 µM (inactive),4.11 µM (inactive),19 µM (inactive),7.62 µM (inactive),47.2 µM (inactive),> 10 µM (inactive),> 10 µM (inactive),29.7 µM (inactive),> 10 µM (inactive),4.44 µM (inactive),0.235 µM (active),–,–,–,–,–,–,–
CCOC(=O)/C(C#N)=C1\N[C@H](C(=O)OCC)CO1,> 100 µM (inactive),> 100 µM (inactive),> 100 µM (inactive),> 100 µM (inactive),> 100 µM (inactive),> 100 µM (inactive),> 100 µM (inactive),> 100 µM (inactive),> 100 µM (inactive),> 100 µM (inactive),> 100 µM (inactive),> 100 µM (inactive),> 100 µM (inactive),–,–,–,–,–,–,–
CCC(=O)Nc1nc2c(ncn2C2OC(COC(=O)CC)C(OC(=O)CC)C2OC(=O)CC)c(=O)[nH]1 (stereo not drawn),> 100 µM (inactive),> 100 µM (inactive),> 100 µM (inactive),> 100 µM (inactive),> 100 µM (inactive),> 100 µM (inactive),> 100 µM (inactive),> 100 µM (inactive),> 100 µM (inactive),> 100 µM (inactive),> 100 µM (inactive),> 100 µM (inactive),> 100 µM (inactive),–,–,–,–,–,–,–
N#CCCN(CCC#N)c1ccc(/C=N\c2ccc(F)cc2)cc1,14.5 µM (inactive),0.236 µM (active),> 31.3 µM (inactive),45.6 µM (inactive),0.137 µM (active),6.97 µM (inactive),> 100 µM (inactive),41.8 µM (inactive),1.62 µM (inactive),12.3 µM (inactive),> 100 µM (inactive),0.121 µM (active),> 100 µM (inactive),> 100 µM (inactive),> 100 µM (inactive),> 100 µM (inactive),–,–,75.3 µM (inactive),71.3 µM (inactive)
